Laboratory results as given in patent US20100137397A1, “Chemical Compounds” (ASTRAZENECA AB, priority 2005, published 2010).

How the values were obtained:
hepatocytes = conditions: cited from earlier work
[1] = db/db and ob/ob mice; cited from earlier work
[2] = biological target: T1, Human recombinant liver glycogen phosphorylase a (hrl GPa) (Homo sapiens, UniProt P06737); assay: glycogen phosphorylase a multienzyme coupled assay; format: biochemical; conditions: hrl GPa 20 nM, 8 mM glucose, pH7.2, 6 hours at 30° C.
T1 sequence (P06737 1-847): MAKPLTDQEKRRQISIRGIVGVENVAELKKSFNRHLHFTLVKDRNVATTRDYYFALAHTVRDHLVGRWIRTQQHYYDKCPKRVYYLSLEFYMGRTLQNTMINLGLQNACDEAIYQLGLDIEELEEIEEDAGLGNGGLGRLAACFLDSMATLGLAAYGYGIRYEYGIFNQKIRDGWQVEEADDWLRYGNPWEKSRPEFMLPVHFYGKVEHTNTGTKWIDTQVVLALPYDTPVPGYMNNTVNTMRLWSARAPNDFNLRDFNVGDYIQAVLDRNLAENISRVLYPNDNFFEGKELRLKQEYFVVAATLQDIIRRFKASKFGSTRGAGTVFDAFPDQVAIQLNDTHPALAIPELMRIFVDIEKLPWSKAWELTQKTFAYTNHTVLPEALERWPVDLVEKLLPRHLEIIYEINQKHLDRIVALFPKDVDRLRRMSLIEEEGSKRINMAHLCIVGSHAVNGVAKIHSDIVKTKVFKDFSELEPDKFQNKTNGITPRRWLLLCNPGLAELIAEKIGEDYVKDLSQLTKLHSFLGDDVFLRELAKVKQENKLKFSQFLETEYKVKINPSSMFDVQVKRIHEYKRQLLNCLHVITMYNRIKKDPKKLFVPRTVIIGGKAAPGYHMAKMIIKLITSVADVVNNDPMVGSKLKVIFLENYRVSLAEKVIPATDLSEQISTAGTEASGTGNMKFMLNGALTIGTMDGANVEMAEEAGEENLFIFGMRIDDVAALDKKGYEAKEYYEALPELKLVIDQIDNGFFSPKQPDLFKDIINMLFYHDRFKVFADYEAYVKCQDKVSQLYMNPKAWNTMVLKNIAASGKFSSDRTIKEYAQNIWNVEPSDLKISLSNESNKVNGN
Experimental: The activity of the compounds is determined by measuring the inhibitory effect of the compounds on glycogen degradation, the production of glucose-1-phosphate from glycogen is monitored by the multienzyme coupled assay, as described in EP 0 846 464 A2, general method of Pesce et al (Pesce, M A, Bodourian, S H, Harris, R C, and Nicholson, J F (1977) Clinical Chemistry 23, […]). The reactions were in 384well microplate format in a volume of 50 μl. The change in fluorescence due to the conversion of the co-factor NAD to NADH is measured at 340 nm excitation, 465 nm emission in a Tecan Ultra Multifunctional Microplate Reader. The reaction is in 50 mM HEPES, 3.5 mM KH2PO4, 2.5 mM MgCl2, 2.5 mM ethylene glycol-bis(b-aminoethyl ether) N,N,N′,N′-tetraacetic acid, 100 mM KCl, 8 mM D-(+)-glucose pH7.2, containing 0.5 mM dithiothreitol, the assay buffer solution. Human recombinant liver glycogen phosphorylase a (hrl GPa) 20 nM is pre-incubated in assay buffer solution with 6.25 mM NAD, 1.25 mg type III glycogen at 1.25 mg m^−1 the reagent buffer, for 30 minutes. […] The non-inhibited activity of GPa is measured in the presence of 10 μl 5% DMSO in assay buffer solution and maximum inhibition measured in the presence of 5 mgs ml^−1 N-ethylmaleimide. […] Relative Fluoresence Units (RFUs) are measured at 340 nm excitation, 465 nm emission. […]
Activity is calculated as follows:—

[3] = conscious dogs; cited from earlier work

SMILES | glucagon stimulated glycogenolysis and glucose output in hepatocytes (hepatocytes) | plasma glucose concentration [1] | IC50 [2] [nM] | hepatic glucose output and arterial plasma glucose following a glucagon challenge [3]
O=C(N[C@@H](Cc1ccc(F)cc1)C(=O)N1CCC(O)CC1)c1cc2cc(Cl)ccc2[nH]1 [CP320626] | reduce | reduced, in a dose related manner |  | 
O=C(O)C[C@@H]1c2ccccc2C[C@H]1NC(=O)c1cc2sc(Cl)c(Cl)c2[nH]1 [Example 8, ((1R,2R)-2-{[(2,3-Dichloro-4H-thieno[3,2-b]pyrrol-5-yl)carbonyl]amino}-2,3-dihydro-1H-inden-1-yl)acetic acid] |  |  | 14 | 
O=C(O)COC[C@@H]1c2ccccc2C[C@H]1NC(=O)c1cc2cc(Cl)sc2[nH]1 [Example 1, [((1R,2R)-2-{[(2-Chloro-6H-thieno[2,3-b]pyrrol-5-yl)carbonyl}amino]-2,3-dihydro-1H-inden-1-yl)methoxy]acetic acid] |  |  | 191 | 
CN(C)C(=O)[C@H](O)[C@H](Cc1ccccc1)NC(=O)c1cc2cc(Cl)ccc2[nH]1 [CP91149] | reduce | reduced, in a dose related manner |  | 
CCN1C(C)=C(C(=O)OC(C)C)C(c2ccccc2Cl)C2=C1COC2=O (stereo not shown) [Bay R 3401] |  |  |  | reduced significantly
